# Reference: patent publication US10336702B2, “Pharmaceutically active compounds” (BERGENBIO ASA, priority 2015, dated 2019)
# Columns and labels:
# [1] = biological target: T1, p-Akt3 in WM115 cells (Homo sapiens, UniProt Q9Y243); experiment: Phospho-Akt cellular SureFire assay, p-Akt3 in WM115 cells; assay type: cell-based; conditions: insulin stimulated, read-out: Biological Assay 2 IC50 (nM) Akt3 WM115
# T1 construct: SureFire assays to detect cellular p-Akt1, p-Akt2 and p-Akt3 levels in WM115 cells (Akt2/3) and LNCaP cells (Akt1); endogenous in cells; host or cells: WM115 (ECACC 91061232), insulin-stimulated
# Method in brief: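 pThr308-Akt3 in lysates was quantified by bead-proximity SureFire detection, pairing a phospho-specific antibody with a total Akt3 antibody. Before lysis, WM115 cells in 0.1% FBS medium were treated for 15 min at 37 °C with compound (final DMSO 0.3%), following a 10 min stimulation with 100 nM insulin. IC50 was obtained by 4-parameter fitting.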
# [2] = biological target: T2, Akt3 (Homo sapiens, UniProt Q9Y243); experiment: Akt activation assay (PDK1-mediated activation, LANCE Ultra crosstide TR-FRET), Akt3; assay type: biochemical; conditions: read-out: Biological Assay 1 IC50 (nM) Akt3
# T2 construct: unspecified tag, removed (detagged) (cleaved yes); purchased SignalChem and Proteros (Akt3); Merck Millipore (PDK1) 14-452 (PDK1); none given for Akt3
# Method in brief: (§1)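 TR-FRET read-out (665/615 nm ratio) after Eu-anti-phospho-crosstide antibody, 1 h. Reaction: compound preincubated with Akt isoform, then 5 nM PDK1, lipid vesicles with 0.55 μM PtdIns(3,4,5)P3, 100 μM ATP, 100 nM crosstide, 30 min, EDTA stop. IC50 from 4-parameter equation.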
# [3] = biological target: T3, p-Akt2 in WM115 cells (Homo sapiens, UniProt P31751); experiment: Phospho-Akt cellular SureFire assay, p-Akt2 in WM115 cells; assay type: cell-based; conditions: insulin stimulated, read-out: Biological Assay 2 IC50 (nM) Akt2 WM115
# T3 construct: SureFire assays to detect cellular p-Akt1, p-Akt2 and p-Akt3 levels in WM115 cells (Akt2/3) and LNCaP cells (Akt1); endogenous in cells; host or cells: WM115 (ECACC 91061232), insulin-stimulated
# Method in brief: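 Readout is a bead-proximity SureFire assay pairing a pThr308 Akt antibody with a total Akt2 antibody, lysate and beads incubated 2 h plus 2 h at room temperature in the dark. Before lysis, serum-starved WM115 cells received 100 nM insulin (10 min), then test compound (15 min, 0.3% DMSO); IC50 by 4-parameter equation.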
# [4] = biological target: T4, Akt1 (Homo sapiens, UniProt P31749); experiment: Akt activation assay (PDK1-mediated activation, LANCE Ultra crosstide TR-FRET), Akt1; assay type: biochemical; conditions: read-out: Biological Assay 1 IC50 (nM) Akt1
# T4 construct: unspecified tag, removed (detagged) (cleaved yes); purchased SignalChem and Proteros (Akt1); Merck Millipore (PDK1) 14-452 (PDK1); none given for Akt1
# Method in brief: as §1
# [5] = biological target: T5, p-Akt1 in LNCaP cells (Homo sapiens, UniProt P31749); experiment: Phospho-Akt cellular SureFire assay, p-Akt1 in LNCaP cells; assay type: cell-based; conditions: read-out: Biological Assay 2 IC50 (nM) Akt1 LNCaP
# T5 construct: SureFire assays to detect cellular p-Akt1, p-Akt2 and p-Akt3 levels in WM115 cells (Akt2/3) and LNCaP cells (Akt1); endogenous in cells; host or cells: LNCaP (ECACC 89110211)
# Method in brief: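 Phospho-Thr308 Akt1 detected by AlphaScreen SureFire proximity beads in LNCaP lysates after 15 min compound treatment at 37 °C in 0.1% FBS medium, unstimulated, 0.3% DMSO. Cells plated at 5×10^4/well overnight; IC50 from a 4-parameter equation.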
# [6] = biological target: T6, Akt2 (Homo sapiens, UniProt P31751); experiment: Akt activation assay (PDK1-mediated activation, LANCE Ultra crosstide TR-FRET), Akt2; assay type: biochemical; conditions: read-out: Biological Assay 1 IC50 (nM) Akt2
# T6 construct: unspecified tag, removed (detagged) (cleaved yes); purchased SignalChem and Proteros (Akt2); Merck Millipore (PDK1) 14-452 (PDK1); none given for Akt2
# Method in brief: as §1
# T2 sequence (Q9Y243 whole entry): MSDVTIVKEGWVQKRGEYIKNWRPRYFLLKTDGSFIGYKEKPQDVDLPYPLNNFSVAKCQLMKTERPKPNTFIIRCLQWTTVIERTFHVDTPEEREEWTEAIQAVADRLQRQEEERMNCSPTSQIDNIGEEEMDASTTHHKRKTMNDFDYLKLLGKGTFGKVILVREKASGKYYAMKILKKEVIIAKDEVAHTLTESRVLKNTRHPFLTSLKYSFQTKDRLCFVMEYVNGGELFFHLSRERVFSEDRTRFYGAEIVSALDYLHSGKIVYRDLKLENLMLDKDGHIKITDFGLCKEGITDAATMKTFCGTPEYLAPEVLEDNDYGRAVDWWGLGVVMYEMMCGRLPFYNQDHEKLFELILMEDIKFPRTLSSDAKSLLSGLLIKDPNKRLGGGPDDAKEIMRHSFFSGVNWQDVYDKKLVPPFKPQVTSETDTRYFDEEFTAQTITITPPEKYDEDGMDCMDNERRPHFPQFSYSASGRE
# T1 sequence (Q9Y243 whole entry): as above
# T3 sequence (P31751 whole entry): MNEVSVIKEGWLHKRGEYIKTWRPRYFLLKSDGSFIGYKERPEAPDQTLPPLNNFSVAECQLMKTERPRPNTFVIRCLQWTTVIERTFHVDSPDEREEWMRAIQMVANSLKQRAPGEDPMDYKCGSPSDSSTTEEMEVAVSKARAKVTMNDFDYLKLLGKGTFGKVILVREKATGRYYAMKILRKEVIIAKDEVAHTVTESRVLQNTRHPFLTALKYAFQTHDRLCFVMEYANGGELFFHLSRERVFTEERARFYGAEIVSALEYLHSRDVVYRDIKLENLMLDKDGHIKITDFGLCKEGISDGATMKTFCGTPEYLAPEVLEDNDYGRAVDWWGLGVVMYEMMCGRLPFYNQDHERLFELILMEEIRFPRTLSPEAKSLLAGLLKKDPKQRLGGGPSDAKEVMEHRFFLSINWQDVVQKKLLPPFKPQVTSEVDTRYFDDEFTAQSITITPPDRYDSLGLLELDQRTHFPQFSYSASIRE
# T6 sequence (P31751 whole entry): as above
# T4 sequence (P31749 whole entry): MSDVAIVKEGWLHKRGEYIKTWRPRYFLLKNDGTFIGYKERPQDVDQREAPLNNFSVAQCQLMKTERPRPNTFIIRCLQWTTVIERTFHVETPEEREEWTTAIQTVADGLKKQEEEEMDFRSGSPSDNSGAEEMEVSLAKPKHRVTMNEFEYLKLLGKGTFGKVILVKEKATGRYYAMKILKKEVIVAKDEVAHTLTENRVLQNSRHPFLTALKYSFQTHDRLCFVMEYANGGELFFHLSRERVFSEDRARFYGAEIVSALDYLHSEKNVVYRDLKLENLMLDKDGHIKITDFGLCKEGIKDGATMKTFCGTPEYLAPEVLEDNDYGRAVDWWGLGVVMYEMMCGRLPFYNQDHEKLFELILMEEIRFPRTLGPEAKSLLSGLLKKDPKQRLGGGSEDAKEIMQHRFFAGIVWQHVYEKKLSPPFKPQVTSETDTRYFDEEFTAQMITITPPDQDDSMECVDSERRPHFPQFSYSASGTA
# T5 sequence (P31749 whole entry): as above
Compound,IC50 [1] [nM],IC50 [2] [nM],IC50 [3] [nM],IC50 [4] [nM],IC50 [5] [nM],IC50 [6] [nM]
"CCC(=O)N(C(C)C)[C@H]1CC[C@H](CC(=O)Nc2cc(-c3ccccc3)c(-c3ccc([C@]4(N)C[C@](C)(O)C4)cc3)nn2)CC1 [Example 104, N-(trans-4-(2-((6-(4-(trans-1-amino-3-hydroxy-3-methylcyclobutyl)phenyl)-5-phenylpyridazin-3-yl)amino)-2-oxoethyl)cyclohexyl)-N-isopropylpropionamide]",27,10,1300,3200,1900,120
"COC(=O)N(C)[C@H]1CC[C@H](CC(=O)Nc2cc(-c3ccsc3)c(-c3ccc(C(C)(C)N)cc3)nn2)CC1 [Example A69, Methyl (trans-4-(2-((6-(4-(2-aminopropan-2-yl)phenyl)-5-(thiophen-3-yl)pyridazin-3-yl)amino)-2-oxoethyl)cyclohexyl)(methyl)carbamate]",710,220,> 30000,> 30000,> 30000,12000
"CCOC(=O)N(C)[C@H]1CC[C@H](CC(=O)Nc2cc(-c3ccccc3)c(-c3ccc(C4(N)CC4)cc3)nn2)CC1 [Example A94, Ethyl (trans-4-(2-((6-(4-(1-aminocyclopropyl)phenyl)-5-phenylpyridazin-3-yl)amino)-2-oxoethyl)cyclohexyl)(methyl)carbamate]",370,57,6000,> 23000,> 30000,2200
"CC(C)(N)c1ccc(-c2cnc(NC(=O)C[C@H]3CC[C@H](N4CCOC4=O)CC3)cc2-c2ccsc2)cc1 [Example A52, N-(5-(4-(2-aminopropan-2-yl)phenyl)-4-(thiophen-3-yl)pyridin-2-yl)-2-(trans-4-(2-oxooxazolidin-3-yl)cyclohexyl)acetamide]",240,640,2600,> 30000,> 30000,11000
"C[C@]1(O)C[C@@](N)(c2ccc(-c3nnc(NC(=O)C[C@H]4CC[C@H](N5CCOC5=O)CC4)cc3-c3ccccc3)cc2)C1 [Example 58, N-(6-(4-(trans-1-amino-3-hydroxy-3-methylcyclobutyl)phenyl)-5-phenylpyridazin-3-yl)-2-(trans-4-(2-oxooxazolidin-3-yl)cyclohexyl)acetamide]",8,3,750,1300,4000,98
"CC(C)C(=O)N(C)[C@H]1CC[C@H](CC(=O)Nc2cnc(-c3ccc([C@]4(N)C[C@](C)(O)C4)cc3)c(-c3ccccc3)c2)CC1 [Example 99, N-(4-(2-((6-(4-(trans-1-amino-3-hydroxy-3-methylcyclobutyl)phenyl)-5-phenylpyridin-3-yl)amino)-2-oxoethyl)cyclohexyl)-N-methylisobutyramide]",12,6,390,2400,670,44
"CC(=O)N(C)[C@H]1CC[C@H](CC(=O)Nc2cnc(-c3ccc(C(C)(C)N)cc3)c(-c3ccsc3)c2)CC1 [Example 6, N-(6-(4-(2-aminopropan-2-yl)phenyl)-5-(thiophen-3-yl)pyridin-3-yl)-2-(trans-4-(N-methylacetamido)cyclohexyl)acetamide]",340,720,> 21000,> 30000,> 30000,> 24000
"CC(C)(N)c1ccc(-c2ncc(NC(=O)C[C@H]3CC[C@H](N4CCOCC4)CC3)cc2-c2ccccc2)cc1 [Example A18, N-(6-(4-(2-aminopropan-2-yl)phenyl)-5-phenylpyridin-3-yl)-2-(trans-4-morpholinocyclohexyl)acetamide]",270,6300,7900,> 30000,> 27000,25000
"CN(C(=O)C1CC1)[C@H]1CC[C@H](CC(=O)Nc2cnc(-c3ccc(C(C)(C)N)c(F)c3)c(-c3ccccc3)c2)CC1 [Example 53, N-(trans-4-(2-((6-(4-(2-aminopropan-2-yl)-3-fluorophenyl)-5-phenylpyridin-3-yl)amino)-2-oxoethyl)cyclohexyl)-N-methylcyclopropanecarboxamide]",680,4100,18000,> 30000,> 30000,> 30000
"COC(=O)N(C)[C@H]1CC[C@H](CC(=O)Nc2cc(-c3ccccc3)c(-c3ccc([C@]4(N)C[C@](C)(O)C4)cc3)nn2)CC1 [Example 59, Methyl (trans-4-(2-((6-(4-(trans-1-amino-3-hydroxy-3-methylcyclobutyl)phenyl)-5-phenylpyridazin-3-yl)amino)-2-oxoethyl)cyclohexyl)(methyl)carbamate]",24,4,380,1400,1600,50

# Next, values leading:
IC50 [1] [nM],IC50 [2] [nM],IC50 [3] [nM],IC50 [4] [nM],IC50 [5] [nM],IC50 [6] [nM],Compound
9,9,390,> 30000,7300,94,"COCC(=O)N(C)[C@H]1CC[C@H](CC(=O)Nc2cc(-c3ccccc3)c(-c3ccc([C@]4(N)C[C@](C)(O)C4)cc3)cn2)CC1 [Example 107, N-(trans-4-(2-((5-(4-(trans-1-amino-3-hydroxy-3-methylcyclobutyl)phenyl)-4-phenylpyridin-2-yl)amino)-2-oxoethyl)cyclohexyl)-2-methoxy-N-methylacetamide]"
90,24,2000,> 30000,> 30000,490,"CCC(=O)N(C)[C@H]1CC[C@H](CC(=O)Nc2cc(-c3ccccc3)c(-c3ccc(C4(N)CC4)cc3)nn2)CC1 [Example A91, N-(trans-4-(2-((6-(4-(1-aminocyclopropyl)phenyl)-5-phenylpyridazin-3-yl)amino)-2-oxoethyl)cyclohexyl)-N-methylpropionamide]"
6,22,350,1200,1100,110,"COC(=O)N(C)[C@H]1CC[C@H](CC(=O)Nc2cnc(-c3ccc([C@]4(N)C[C@](C)(O)C4)cc3)c(-c3ccccc3)c2)CC1 [Example 44, Methyl (trans-4-(2-((6-(4-(trans-1-amino-3-hydroxy-3-methylcyclobutyl)phenyl)-5-phenylpyridin-3-yl)amino)-2-oxoethyl)cyclohexyl)(methyl)carbamate]"
150,20,4400,980,8700,94,"CC(=O)NC1CCC(CC(=O)Nc2cnc(-c3ccc([C@]4(N)C[C@](C)(O)C4)cc3)c(-c3ccccc3)c2)CC1 (stereo partly drawn) [Example 2, 2-(trans-4-acetamidocyclohexyl)-N-(6-(4-(trans-1-amino-3-hydroxy-3-methylcyclobutyl)phenyl)-5-phenylpyridin-3-yl)acetamide]"
1500,17000,17000,> 30000,> 30000,25000,"CN(C1CCC(CC(=O)Nc2cnc(-c3ccc(C(C)(C)N)cc3)c(-c3ccccc3)c2)CC1)C1(C)COC1 (stereo not drawn) [Example 35, N-(6-(4-(2-aminopropan-2-yl)phenyl)-5-phenylpyridin-3-yl)-2-(4-(methyl(3-methyloxetan-3-yl)amino)cyclohexyl)acetamide]"
590,4500,24000,> 30000,> 20000,16000,"CC(=O)N[C@H]1CC[C@H](CC(=O)Nc2cnc(-c3ccc([C@H](N)C(F)F)cc3)c(-c3ccccc3)c2)CC1 [Example A12, 2-(trans-4-acetamidocyclohexyl)-N-(6-(4-((S)-1-amino-2,2-difluoroethyl)phenyl)-5-phenylpyridin-3-yl)acetamide]"
